Key:
Thyroid hormone receptor = molecular target: T1, Thyroid hormone receptor (Homo sapiens, UniProt P10827+P10828); experiment: (§1) Agonist activity towards thyroid hormone receptor expressed in human HepG2 cells; format: functional, cell-based
T1 sequence (P10827 whole entry): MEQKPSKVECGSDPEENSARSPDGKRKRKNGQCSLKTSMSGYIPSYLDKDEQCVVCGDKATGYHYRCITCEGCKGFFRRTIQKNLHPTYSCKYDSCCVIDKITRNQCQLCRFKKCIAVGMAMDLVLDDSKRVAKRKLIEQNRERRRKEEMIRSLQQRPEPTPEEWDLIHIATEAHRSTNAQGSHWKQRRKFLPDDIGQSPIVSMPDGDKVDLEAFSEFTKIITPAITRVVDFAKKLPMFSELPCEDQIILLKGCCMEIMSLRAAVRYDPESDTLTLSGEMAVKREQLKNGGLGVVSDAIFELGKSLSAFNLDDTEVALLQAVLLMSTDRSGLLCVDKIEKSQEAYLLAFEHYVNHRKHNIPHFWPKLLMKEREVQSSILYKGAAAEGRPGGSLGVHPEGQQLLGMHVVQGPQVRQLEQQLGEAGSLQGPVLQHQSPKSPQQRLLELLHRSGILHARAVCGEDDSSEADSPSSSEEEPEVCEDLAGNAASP
T1 sequence (P10828 whole entry): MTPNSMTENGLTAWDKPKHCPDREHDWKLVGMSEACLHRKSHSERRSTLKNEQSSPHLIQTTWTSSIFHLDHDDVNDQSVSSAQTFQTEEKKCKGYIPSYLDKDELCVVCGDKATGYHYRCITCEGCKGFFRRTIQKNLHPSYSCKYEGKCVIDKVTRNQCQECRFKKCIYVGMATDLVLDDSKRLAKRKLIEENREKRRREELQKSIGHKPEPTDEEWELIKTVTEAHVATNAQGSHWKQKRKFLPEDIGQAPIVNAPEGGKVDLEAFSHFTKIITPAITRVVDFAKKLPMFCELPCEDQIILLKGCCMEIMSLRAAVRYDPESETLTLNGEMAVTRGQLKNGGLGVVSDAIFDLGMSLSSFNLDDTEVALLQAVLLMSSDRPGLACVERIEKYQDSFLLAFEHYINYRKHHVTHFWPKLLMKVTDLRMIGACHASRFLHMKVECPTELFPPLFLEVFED

[1] = molecular target: T2, Thyroid hormone receptor (Homo sapiens) (UniProt P10827+P10828); experiment: Selectivity for THRalpha and THRbeta, ratio of EC50; format: protein-complex assay
[2] = molecular target: T2, Thyroid hormone receptor (Homo sapiens); experiment: as §1; format: functional, cell-based

Compound `CCOC(=O)C(=O)Nc1cc(C)c(Oc2ccc3[nH]cc(C(C)C)c3c2)c(C)c1` has an EC50 (Thyroid hormone receptor) of 4 nM and a Selectivity [1] of 10.

`CC(C)c1c[nH]c2ccc(Oc3c(C(F)(F)F)cc(CC(=O)O)cc3C(F)(F)F)cc12` showed an EC50 (Thyroid hormone receptor) of 0.5 nM.

With `CCOC(=O)C(=O)Nc1cc(Br)c(Oc2ccc3[nH]cc(C(C)C)c3c2)c(Br)c1` the EC50 (Thyroid hormone receptor) was 1.2 nM.

`CCOC(=O)C(=O)Nc1cc(C)c(Oc2ccc3[nH]cc(C(C)C)c3c2)c(Cl)c1` gave an EC50 (Thyroid hormone receptor) of 4 nM.

`CCOC(=O)C(=O)Nc1cc(C(F)(F)F)c(Oc2ccc3[nH]cc(Oc4ccc(F)cc4)c3c2)c(C(F)(F)F)c1` was tested, and the EC50 (Thyroid hormone receptor) was 495 nM.

`CCOC(=O)C(=O)Nc1cc(C)c(Oc2ccc3[nH]cc(C)c3c2)c(C)c1` showed an EC50 (Thyroid hormone receptor) of 15 nM.

In the case of `CCOC(=O)C(=O)Nc1cc(C)c(Cc2ccc3[nH]cc(C(C)C)c3c2)c(C)c1`, the EC50 (Thyroid hormone receptor) is reported as 18 nM.

Work on `CC(C)c1c[nH]c2ccc(Oc3c(C(F)(F)F)cc(CCC(=O)O)cc3C(F)(F)F)cc12` yielded an EC50 (Thyroid hormone receptor) of 2.6 nM.

For `CCOC(=O)C(=O)Nc1cc(Cl)c(Oc2ccc3[nH]ccc3c2)c(Cl)c1`, the EC50 (Thyroid hormone receptor) was 15 nM.

For `CC(C)c1c[nH]c2ccc(Oc3c(C(F)(F)F)cc(/C=C/C(=O)O)cc3C(F)(F)F)cc12`, the EC50 (Thyroid hormone receptor) was 3.2 nM.

Compound `CCCCCc1n[nH]c2ccc(Oc3c(C)cc(NC(=O)C(=O)OCC)cc3C)cc12` has an EC50 (Thyroid hormone receptor) of 8 nM.

Work on `Cc1cc(OCC(=O)O)cc(C)c1Oc1ccc2[nH]cc(C(C)C)c2c1` yielded a Concentration [2] of 24 nM.

With `CCOC(=O)CC(=O)Nc1cc(C)c(Oc2ccc3[nH]cc(C(C)C)c3c2)c(Cl)c1` the EC50 (Thyroid hormone receptor) was 8 nM and the Selectivity [1] was 10.

Work on `CCOC(=O)C(=O)Nc1cc(C)c(Oc2ccc3[nH]ccc3c2)c(C)c1` yielded an EC50 (Thyroid hormone receptor) of 72 nM.

`CCOC(=O)C(=O)Nc1cc(C(F)(F)F)c(Oc2ccc3[nH]ccc3c2)c(C(F)(F)F)c1` was tested, and the EC50 (Thyroid hormone receptor) was 23 nM.

Compound `CCOC(=O)C(=O)Nc1cc(C(F)(F)F)c(Oc2ccc3[nH]cc(-c4ccc(F)cc4)c3c2)c(C(F)(F)F)c1` has an EC50 (Thyroid hormone receptor) of 115 nM.

With `C=Cc1cc(NC(=O)C(=O)OCC)cc(C=C)c1Oc1ccc2[nH]cc(C(C)C)c2c1` the EC50 (Thyroid hormone receptor) was 7.8 nM.

For `CCOC(=O)C(=O)Nc1cc(C(F)(F)F)c(Oc2ccc3[nH]cc(C(C)C)c3c2)c(C(F)(F)F)c1`, the EC50 (Thyroid hormone receptor) was 3 nM and the Selectivity [1] was 10.

In the case of `COC(=O)C(=O)Nc1cc(Cl)c(Oc2ccc3[nH]cc(C(C)C)c3c2)c(Cl)c1`, the EC50 (Thyroid hormone receptor) is reported as 4 nM.

With `CCOC(=O)C(=O)Nc1cc(C(F)(F)F)c(Oc2ccc3[nH]cc(Cc4ccc(F)cc4)c3c2)c(C(F)(F)F)c1` the EC50 (Thyroid hormone receptor) was 11 nM.

Reference: ChEMBL document CHEMBL1143500, “Novel heterocyclic thyromimetics” (Bioorg Med Chem Lett, 2005)
